The record followed here is BindingDB's records for doi:10.1016/j.bmcl.2004.05.028 (Gsk, 2004).

Structures are written as SMILES.

Chain of Transient receptor potential cation channel subfamily V member 1 (Q8NER1 whole entry): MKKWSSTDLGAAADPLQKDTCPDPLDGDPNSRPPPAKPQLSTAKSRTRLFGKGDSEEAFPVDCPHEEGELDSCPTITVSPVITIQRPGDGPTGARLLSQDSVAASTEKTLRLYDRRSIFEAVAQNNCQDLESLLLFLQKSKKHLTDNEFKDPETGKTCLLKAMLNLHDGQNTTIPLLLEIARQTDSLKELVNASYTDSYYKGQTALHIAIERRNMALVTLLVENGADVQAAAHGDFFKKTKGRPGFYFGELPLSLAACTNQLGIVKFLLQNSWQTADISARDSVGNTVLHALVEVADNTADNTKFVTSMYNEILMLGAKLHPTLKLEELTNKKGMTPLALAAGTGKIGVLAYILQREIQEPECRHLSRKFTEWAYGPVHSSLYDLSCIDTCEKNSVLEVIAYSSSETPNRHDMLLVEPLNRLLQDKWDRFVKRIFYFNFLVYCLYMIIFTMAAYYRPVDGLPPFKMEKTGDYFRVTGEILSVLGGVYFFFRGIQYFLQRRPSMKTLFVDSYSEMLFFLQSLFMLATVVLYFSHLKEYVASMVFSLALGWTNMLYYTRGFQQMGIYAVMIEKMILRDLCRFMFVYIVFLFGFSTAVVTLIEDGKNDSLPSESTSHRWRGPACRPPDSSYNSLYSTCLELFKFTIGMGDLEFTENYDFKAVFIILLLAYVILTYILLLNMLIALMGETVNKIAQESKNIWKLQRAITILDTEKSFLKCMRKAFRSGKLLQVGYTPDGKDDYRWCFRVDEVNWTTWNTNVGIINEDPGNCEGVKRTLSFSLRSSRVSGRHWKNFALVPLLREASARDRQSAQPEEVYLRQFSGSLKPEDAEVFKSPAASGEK

This experiment addresses Transient receptor potential cation channel subfamily V member 1 (Homo sapiens, UniProt Q8NER1). As to the kind of experiment: FLIPR (Fluorescence Imaging Plate Reader)-Based Ca2+ Assay. To be noted: pH 7.2; 25 °C. How it is done: One day before the assay was performed, human TRPV1 expressed in 1321N1 astrocytoma cells were plated onto 96-well assay plates and grown until 2.5 h before the assay, and the cells were loaded with the Ca2+ reporter dye Fluo3-AM for 2 h at room temperature. After this, the cells were washed, and continuously being incubated for 30 min with medium containing test compounds at a range of different concentrations.
A word on the EC50: it is the concentration that produces a half-maximal response. The low end stands for an effect from little substance, the high end for a need for much substance. In the case of `COc1cccc(NC(=O)/C=C/c2ccc(Cl)cc2)c1` [(2E)-3-(4-chlorophenyl)-N-(3-methoxyphenyl)prop-2-enamide], the EC50 is 20 nM. `Oc1cc2c(cc1O)CN(C(=S)NCCc1ccc(Cl)cc1)CCC2` [N-[2-(4-chlorophenyl)ethyl]-7,8-dihydroxy-2,3,4,5-tetrahydro-1H-2-benzazepine-2-carbothioamide] returned a concentration giving a half-maximal response (EC50) of 32 nM. The result for `CCN(CCNC(=O)Nc1ccccc1Br)c1cccc(C)c1` [3-(2-bromophenyl)-1-{2-[ethyl(3-methylphenyl)amino]ethyl}urea] reads 16 nM.
